Reference: patent US11377442B2, “Small molecule agonists and antagonists of NR2F6 activity” (ZANDER THERAPEUTICS, INC., priority 2016, dated 2022)
Like-named read-outs stand apart in the source and are kept apart here.

Tests used:
Format in all cases: cell-based
NR2F6 = target: T1, NR2F6 (Homo sapiens, UniProt P10588); assay: NR2F6 agonist screening, Firefly signal cmpd/DMSO
T1 construct: expressed in transfected cells; also transient transfection
T1 sequence (P10588 1-404): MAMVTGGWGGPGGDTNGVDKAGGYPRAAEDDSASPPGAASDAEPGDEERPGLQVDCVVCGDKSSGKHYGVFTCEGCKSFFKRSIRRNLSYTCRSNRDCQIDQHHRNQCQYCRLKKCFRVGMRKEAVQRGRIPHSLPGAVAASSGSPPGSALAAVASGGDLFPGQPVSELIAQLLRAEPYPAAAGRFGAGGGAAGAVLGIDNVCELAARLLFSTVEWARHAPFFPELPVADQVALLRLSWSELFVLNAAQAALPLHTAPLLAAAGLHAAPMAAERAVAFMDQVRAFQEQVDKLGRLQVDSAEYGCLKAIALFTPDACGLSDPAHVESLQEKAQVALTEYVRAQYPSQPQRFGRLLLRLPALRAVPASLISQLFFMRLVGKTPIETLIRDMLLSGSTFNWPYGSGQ

Renilla = Renilla signal in NR2F6 agonist screening, cmpd/DMSO; conditions: for fold induction at 2 µM / fold induction at 10 µM / fold induction at 40 µM: Renilla, read-out: Renilla F4, cmpd/DMSO (mean)
Renilla_ERa = assay: Renilla signal in ERα counterscreen (Renilla_ERa); conditions: for fold induction at 2 µM / fold induction at 10 µM / fold induction at 40 µM: read-out: Renilla ERalpha transient, cmpd/DMSO (mean)
ERα [1] = target: T2, ERα (Homo sapiens, UniProt P03372); assay: Counterscreening, Firefly signal with ERα transient transfection (Firefly_ERa)
T2 construct: expressed in transfected cells
T2 sequence (P03372 1-595): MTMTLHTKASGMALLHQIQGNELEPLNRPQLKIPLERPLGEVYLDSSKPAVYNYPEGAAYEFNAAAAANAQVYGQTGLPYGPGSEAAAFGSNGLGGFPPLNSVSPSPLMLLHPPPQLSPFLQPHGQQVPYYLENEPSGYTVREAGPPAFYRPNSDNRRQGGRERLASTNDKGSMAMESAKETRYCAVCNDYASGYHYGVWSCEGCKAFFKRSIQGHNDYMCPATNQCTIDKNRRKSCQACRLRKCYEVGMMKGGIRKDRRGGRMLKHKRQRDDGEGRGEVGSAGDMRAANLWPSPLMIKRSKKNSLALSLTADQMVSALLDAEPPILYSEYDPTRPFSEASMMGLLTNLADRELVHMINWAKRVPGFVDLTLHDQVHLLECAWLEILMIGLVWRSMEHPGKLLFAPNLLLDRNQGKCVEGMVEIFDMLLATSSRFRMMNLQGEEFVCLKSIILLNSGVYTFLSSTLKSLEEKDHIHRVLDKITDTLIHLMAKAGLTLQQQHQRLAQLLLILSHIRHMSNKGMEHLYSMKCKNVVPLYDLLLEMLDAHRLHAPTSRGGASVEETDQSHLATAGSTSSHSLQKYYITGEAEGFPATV

ERα [2] = target: T2, ERα; assay: as above; conditions: 10 uM
Method: The methodology for screening candidate compounds as NR2F6 agonists was as follows: For primary screening, hit criteria was ACT %>DMSO control+5*SD (DSO control) at 10 μM, or any compound with S/B>2. For rescreening, hit criteria was ACT %>DMSO control+3*SD (DSO control) in each replicate at 10 μM. For counterscreening, hit criteria was mean ACT<DMSO control+3*SD (DMSO control) with ERα transient transfection in duplicate at 10 μM.

| SMILES | Firefly F4, cmpd/DMSO (mean) (NR2F6; 2 uM, clone F4) | Firefly F4, cmpd/DMSO (mean) (NR2F6; 10 uM, clone F4) | Firefly F4, cmpd/DMSO (mean) (NR2F6; 40 uM, clone F4) | Firefly ERalpha transient, cmpd/DMSO (mean) (ERα [1]; 2 uM) | Firefly ERalpha transient, cmpd/DMSO (mean) (ERα [1]; 40 uM) | Firefly ERalpha transient, cmpd/DMSO (mean) (ERα [2]) | fold induction at 2 µM (Renilla; 2 uM, clone F4) | fold induction at 10 µM (Renilla; 10 uM, clone F4) | fold induction at 40 µM (Renilla; 40 uM, clone F4) | fold induction at 2 µM (Renilla_ERa; 2 uM) | fold induction at 10 µM (Renilla_ERa; 10 uM) | fold induction at 40 µM (Renilla_ERa; 40 uM) | Firefly F4, cmpd/DMSO (mean) (NR2F6; Table 15, 2 uM) | Firefly F4, cmpd/DMSO (mean) (NR2F6; Table 15, 10 uM) | Firefly F4, cmpd/DMSO (mean) (NR2F6; Table 15, 40 uM) | fold induction at 2 µM (Renilla; Table 15, 2 uM) | fold induction at 10 µM (Renilla; Table 15, 10 uM) | fold induction at 40 µM (Renilla; Table 15, 40 uM) | fold induction at 2 µM (Renilla_ERa; Table 15, 2 uM) | fold induction at 10 µM (Renilla_ERa; Table 15, 10 uM) | also measured |
| --- | --- | --- | --- | --- | --- | --- | --- | --- | --- | --- | --- | --- | --- | --- | --- | --- | --- | --- | --- | --- | --- |
| CCCCCCNc1nc(OC)nc(N2CCn3c(cccc3=O)C2)n1 [Compound 41] | 0.8 | 0.9 | 0.9 | 1.5 | 1.4 | 1.5 | – | – | – | – | – | – | – | – | – | – | – | – | – | – | Renilla F4, cmpd/DMSO (mean) (Renilla; 2 uM, clone F4): 1.1; Renilla F4, cmpd/DMSO (mean) (Renilla; 10 uM, clone F4): 1.1; Renilla F4, cmpd/DMSO (mean) (Renilla; 40 uM, clone F4): 1.1; Renilla ERalpha transient, cmpd/DMSO (mean) (Renilla_ERa; 2 uM): 1.2; Renilla ERalpha transient, cmpd/DMSO (mean) (Renilla_ERa; 10 uM): 1.2; Renilla ERalpha transient, cmpd/DMSO (mean) (Renilla_ERa; 40 uM): 1.1 |
| N#Cc1c(C(F)(F)F)nc2ccc(Oc3ccccc3)cc2c1N1CCNCC1 [Compound Z51] | 0.6 | 0.6 | 0.7 | 1.3 | 0.4 | 0.8 | 0.8 | 0.7 | 0.3 | 1.1 | 0.9 | 0.3 | – | – | – | – | – | – | – | – | – |
| CCOC(=O)c1cnc2c(C)cc(C)cc2c1N1CCC(N(C)C)CC1 [Compound Z68] | – | – | – | – | – | – | – | – | – | – | – | – | 1.5 | 1.1 | 1.2 | 0.9 | 1 | 0.6 | 1.1 | 0.9 | fold induction at 40 µM (Renilla_ERa; Table 15, 40 uM): 0.6; Firefly ERalpha transient, cmpd/DMSO (mean) (ERα [1]; Table 15, 2 uM): 1.1; Firefly ERalpha transient, cmpd/DMSO (mean) (ERα [1]; Table 15, 40 uM): 0.7; Firefly ERalpha transient, cmpd/DMSO (mean) (ERα [2]; Table 15): 1.5 |
| O=c1c(Cl)c(Cl)cnn1-c1ccccc1 [Compound 45] | 3.2 | 1.2 | 0.7 | 1.8 | 0.6 | 1.6 | 1.6 | 0.8 | 0.2 | 1.6 | 0.8 | 0.2 | – | – | – | – | – | – | – | – | – |
| O=c1cccc2n1CCN(c1nc(NCC3CCCO3)nc(N3CCCC3)n1)C2 (stereo not drawn) [Compound 42] | 1.6 | 0.8 | 0.9 | 2.3 | 1.0 | 1.0 | – | – | – | – | – | – | – | – | – | – | – | – | – | – | Renilla F4, cmpd/DMSO (mean) (Renilla; 2 uM, clone F4): 0.7; Renilla F4, cmpd/DMSO (mean) (Renilla; 10 uM, clone F4): 0.8; Renilla F4, cmpd/DMSO (mean) (Renilla; 40 uM, clone F4): 1.1; Renilla ERalpha transient, cmpd/DMSO (mean) (Renilla_ERa; 2 uM): 0.9; Renilla ERalpha transient, cmpd/DMSO (mean) (Renilla_ERa; 10 uM): 1.0; Renilla ERalpha transient, cmpd/DMSO (mean) (Renilla_ERa; 40 uM): 1.0 |
| COc1ccc(-c2cc3n(n2)C(N)=C(C#N)C(c2c[nH]c4ccccc24)(C(F)(F)F)N3)cc1OC (stereo not drawn) [Compound Z44] | 0.8 | 0.8 | 0.4 | 1.2 | 1.0 | 1.2 | 1.7 | 1.5 | 0.3 | 1.1 | 0.9 | 0.5 | – | – | – | – | – | – | – | – | – |
| CCOC(=O)c1cnc2c(C)cc(C)cc2c1N1CCCC(N(C)C)C1 (stereo not drawn) [Compound Z27] | 1.3 | 1.3 | 0.7 | 1.3 | 0.5 | 2.1 | 1.2 | 1.2 | 0.9 | 1.2 | 1.2 | 0.8 | – | – | – | – | – | – | – | – | – |
| Cc1ccc(NC(=O)c2n[nH]c3c2CCCCC3)cc1C [Compound Z2] | – | – | – | – | – | – | – | – | – | – | – | – | 1.4 | 1.9 | 0.6 | 1.2 | 1.8 | 1.2 | 1.2 | 1.1 | fold induction at 40 µM (Renilla_ERa; Table 15, 40 uM): 1; Firefly ERalpha transient, cmpd/DMSO (mean) (ERα [1]; Table 15, 2 uM): 1.6; Firefly ERalpha transient, cmpd/DMSO (mean) (ERα [1]; Table 15, 40 uM): 0.7; Firefly ERalpha transient, cmpd/DMSO (mean) (ERα [2]; Table 15): 1.1 |
| CCOC(=O)c1cnc2c(C)cc(C)cc2c1NCCCN [Compound Z58] | – | – | – | – | – | – | – | – | – | – | – | – | 0.9 | 4.5 | 0.8 | 1.3 | 1.2 | 0.8 | 1.2 | 1.1 | fold induction at 40 µM (Renilla_ERa; Table 15, 40 uM): 0.7; Firefly ERalpha transient, cmpd/DMSO (mean) (ERα [1]; Table 15, 2 uM): 1.5; Firefly ERalpha transient, cmpd/DMSO (mean) (ERα [1]; Table 15, 40 uM): 0.8; Firefly ERalpha transient, cmpd/DMSO (mean) (ERα [2]; Table 15): 6.5 |
| CCOC(=O)c1cnc2c(Cl)cc(Cl)cc2c1NCCCN1CCCC1 [Compound Z36] | 0.7 | 1.8 | 0.7 | 1.2 | 5.8 | 1.6 | 1 | 1.8 | 0.6 | 1.2 | 1.6 | 0.8 | – | – | – | – | – | – | – | – | – |
| O=c1cccc2n1CC1CC2CN(c2nc(N3CCCC3)nc(N3CCCC3)n2)C1 (stereo not drawn) [Compound 26] | 1.0 | 1.1 | 1.3 | 1.0 | 1.1 | 1.3 | 1 | 0.7 | 0.7 | 0.9 | 1 | 1 | – | – | – | – | – | – | – | – | – |
| CCOC(=O)c1cnc2c(C)cc(C)cc2c1N1CCC(C)CC1 [Compound Z76] | – | – | – | – | – | – | – | – | – | – | – | – | 0.8 | 1.8 | 0.8 | 1 | 0.8 | 0.5 | 1.1 | 0.8 | fold induction at 40 µM (Renilla_ERa; Table 15, 40 uM): 0.4; Firefly ERalpha transient, cmpd/DMSO (mean) (ERα [1]; Table 15, 2 uM): 1.3; Firefly ERalpha transient, cmpd/DMSO (mean) (ERα [1]; Table 15, 40 uM): 0.7; Firefly ERalpha transient, cmpd/DMSO (mean) (ERα [2]; Table 15): 1.9 |
| COc1ccc2nc(C(F)(F)F)c(C#N)c(NCc3ccc(Cl)cc3)c2c1 [Compound Z38] | 0.5 | 0.8 | 0.6 | 0.9 | 0.5 | 0.5 | 0.7 | 0.6 | 0.4 | 0.9 | 0.6 | 0.6 | – | – | – | – | – | – | – | – | – |
